The values that follow come from patent publication US20040116535A1, “Use” (priority 2001, published 2004).

Data set [1] relates to tinnitus.
The test system of the next data set is GABA. As to conditions: cited from earlier work.
Data set [2] has as its system tinnitus. The settings on record: 32 patients; 200 mg 3 times daily for 30 days; cited from earlier work.
Data set [3] concerns tinnitus. The settings on record: 300 mg mex per day orally for one or two weeks; cited from earlier work.
For data set [4] the following is noted: cited from earlier work.
The subject of data set [5] is allodynia from rat nerve root ligation. The settings on record: cited from earlier work.
Another data set has as its system allodynia. Briefly: Different allodynia model, i.v. injected mex enantiomers (Nordmark and Schött, unpublished observations). In kind it is in vivo. As to conditions: 25 mg/kg i.v.
In data set [6] the test system is tinnitus. The settings on record: no statistically significant difference to placebo (35%); cited from earlier work.
The subject of the next data set is inferior colliculus. As to conditions: activity believed to be representative of tinnitus; cited from earlier work.
Data set [7] concerns tinnitus. As to conditions: difference to placebo (30%) not significant; cited from earlier work.
The test system of data set [8] is tinnitus. The settings on record: tocainide infusion; placebo infusion 5%; cited from earlier work.

“Also recorded” adds a separate entry of the source. Like-named read-outs stand apart in the source and are kept apart here.

“1-(2,6-dimethylphenoxy)-propanamine [mexiletine]”: the “tinnitus intensity reduction (VAS)” value in the data set on tinnitus [1] (Case 1, 500 mg mexiletine infused over 120 min, after 118 min) is reported as 95%. The “time after which tinnitus returned to normal” value in the data set with tinnitus [1] (Case 2, 500 mg mexiletine) is 1 h. Besides, the “level to which tinnitus was reduced” value in the data set on tinnitus [1] (Case 2, 500 mg mexiletine, shortly before the infusion stopped) is 60%. Moreover, the “time after which tinnitus returned to base level” value in the data set on tinnitus [1] (Case 2, 550 mg mexiletine over 90 min) stood at 100 min. The “tinnitus (VAS)” value in the data set on tinnitus [1] (Case 2, 550 mg mexiletine over 90 min, after 60 min) is “completely vanished”. Besides, in the data set on tinnitus [1] (Case 2, 550 mg mexiletine over 90 min, after 214 min), the “increase in tinnitus intensity” value is listed as “about 40%”. Moreover, in the data set with tinnitus [1] (Case 3, mexiletine), the “reduction in tinnitus intensity” value is on record as “small reductions; also recorded: moderate”. Moreover, in the data set with tinnitus [1] (human, in vivo), the side effects result is given as “no side effects”. In the data set with GABA, the “effect on GABA” value was “stimulating effect”. In the data set on tinnitus [2], the “effect on tinnitus compared with placebo” value is reported as “not superior to placebo”. In the data set with tinnitus [3], the “patients showing no effect” value is listed as 65% and the “subjects showing an effect above 50%” value was 14.6%. For the same molecule, the “difference between peak and trough” value in data set [4] (after administration every 8 hours) is “more than 30%”. The half-life entry in data set [4] (human, in vivo) is “about 8 hours”.

Turning to `Cc1cccc(C)c1OC[C@@H](C)N` [(R−)-mex], the “pain relief (allodynia) compared between the mex enantiomers” value in [5] is reported as “considerably greater”.

Turning to `Cc1cccc(C)c1OC[C@H](C)N` [(S+)-mex], in the data set on allodynia, the side effects entry is on record as “so severe that pain measurements were not possible”.

As for `NC(=O)N1c2ccccc2C=Cc2ccccc21` [carbamazepine], the “positive results for the drug” value in the data set with tinnitus [6] is on record as 45%.

Consider `CCN(CC)CC(=O)Nc1c(C)cccc1C` [lidocaine], for which the side effects entry with tinnitus [1] (Case 1, 100 mg lidocaine i.v.) was “no side effects”; with tinnitus [1] (Case 3, lidocaine) it was “no side effects”. The “tinnitus intensity reduction (VAS)” value with tinnitus [1] (Case 1, 100 mg lidocaine i.v. over 5 min, 70 min after the start) is reported as 96%. Further, in the data set with tinnitus [1] (Case 2, lidocaine i.v.), the “time after which tinnitus returned to the initial level” value is “about 2 min”. For the same molecule, the “tinnitus (VAS)” value is reported as “no tinnitus” with tinnitus [1] (Case 2, lidocaine i.v., 30 s after injection) and “vanished completely” with tinnitus [1] (Case 2, lidocaine i.v., less than one min after the start of the injection). Also, the “tinnitus increase above the base level” value with tinnitus [1] (Case 2, lidocaine i.v., at 30 min) is 46%. The “reduction in tinnitus intensity” value in the data set on tinnitus [1] (Case 3, lidocaine) is recorded as “small reductions; also recorded: moderate”. Further, in the data set on inferior colliculus, the “increased spontaneous activity in the inferior colliculus” value was “abolished”. For the same molecule, the “effect on GABA” value in the data set on GABA was “stimulating effect”.

As to `CNCCC=C1c2ccccc2CCc2ccccc21` [nortriptyline], the “reduction of tinnitus sensation” value in the data set with tinnitus [7] was 43%.

For `Cc1cccc(C)c1NC(=O)C(C)N` (stereo not drawn) [tocainide], in the data set with tinnitus [8], the “reduction in tinnitus intensity” value is reported as 50%. The “effect on GABA” value in the data set on GABA is “stimulating effect”.
